These results are taken from US9776972B2, “Pyrazole derivatives as arginine methyltransferase inhibitors and uses thereof” (priority 2013, dated 2017).

In this assay the target is T1, Human CARM1 (PRMT4) (Homo sapiens, UniProt Q86X55).
T1 construct: Flag-CARM1-His; made in house; host or cells: HEK 293F cells (BacMam baculovirus)
T1 sequence (Q86X55 1-585 isoform Q86X55-1): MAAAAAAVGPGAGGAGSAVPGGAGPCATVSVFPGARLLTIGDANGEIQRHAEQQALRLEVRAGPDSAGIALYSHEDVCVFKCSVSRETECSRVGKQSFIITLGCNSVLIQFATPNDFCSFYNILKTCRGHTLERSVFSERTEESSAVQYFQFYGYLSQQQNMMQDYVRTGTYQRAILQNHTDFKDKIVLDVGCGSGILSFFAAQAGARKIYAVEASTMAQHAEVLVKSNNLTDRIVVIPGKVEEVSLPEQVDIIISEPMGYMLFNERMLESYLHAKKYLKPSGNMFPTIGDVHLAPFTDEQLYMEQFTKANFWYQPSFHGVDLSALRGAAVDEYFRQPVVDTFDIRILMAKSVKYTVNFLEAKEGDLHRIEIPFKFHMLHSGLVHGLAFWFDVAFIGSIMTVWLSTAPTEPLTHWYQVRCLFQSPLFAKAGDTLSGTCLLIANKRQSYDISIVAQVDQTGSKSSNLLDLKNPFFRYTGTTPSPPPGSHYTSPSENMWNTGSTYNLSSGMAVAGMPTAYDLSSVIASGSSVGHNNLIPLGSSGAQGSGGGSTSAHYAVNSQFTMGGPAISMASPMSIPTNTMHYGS
The assay is described as follows: CARM1 Biochemical Assay (3H-SAM Flashplate, peptide substrate). To be noted: single experiment or average of multiple experiments. The source says: S-adenosylmethionine (SAM), S-adenosylhomocysteine (SAH), bicine, Tween20, dimethylsulfoxide (DMSO), bovine skin gelatin (BSG), sodium butyrate and Tris(2-carboxyethyl)phosphine hydrochloride solution (TCEP) were purchased from Sigma-Aldrich at the highest level of purity possible. ^3H-SAM was purchase from American Radiolabeled Chemicals with a specific activity of 80 Ci/mmol. 384-well streptavidin Flashplates were purchased from PerkinElmer.
Peptide representative of human histone H3 residues 16-30 was synthesized with an N-terminal linker-affinity tag motif and a C-terminal amide cap by 21st Century Biochemicals. […] The sequence was Biot-Ahx-[…]-amide and contained a monomethylated arginine at position 26 (SEQ ID NO.: 14).
Recombinant baculovirus were generated according to Bac-to-Bac kit instructions (Life Technologies). […] Infections were carried out at 37° C. for 48 hours, harvested by centrifugation, and stored at −80° C. for purification.
Column was washed with 500 mM NaCl in buffer A and Flag-CARM1-His was eluted with 200 ug/ml FLAG peptide in buffer A. Pooled fractions were dialyzed in 20 mM Tris, 150 mM NaCl, 5% glycerol and 1 mM DTT, pH 7.8.
General Procedure for CARM1 Enzyme Assays on Peptide Substrates.
The assays were all performed in a buffer consisting of 20 mM Bicine (pH=7.6), 1 mM TCEP, 0.005% BSG, and 0.002% Tween 20, prepared on the day of use. […] DMSO (1 ul) was added to Columns 11, 12, 23, 24, rows A-H for the maximum signal control and 1 ul of SAH, a known product and inhibitor of CARM1, was added to columns 11, 12, 23, 24, rows I-P for the minimum signal control. A cocktail (40 ul) containing the CARM1 enzyme was added by Multidrop Combi (Thermo-Fisher). The compounds were allowed to incubate with CARM1 for 30 min at room temperature, then a cocktail (10 ul) containing ^3H-SAM and peptide was added to initiate the reaction (final volume=51 ul). […] The assays were stopped by the addition of non-radiolabeled SAM (10 ul) to a final concentration of 300 uM, which dilutes the ^3H-SAM to a level where its incorporation into the peptide substrate is no longer detectable. 50 ul of the reaction in the 384-well polypropylene plate was then transferred to a 384-well Flashplate and the biotinylated peptides were allowed to bind to the streptavidin surface for at least 1 hour before being washed once with 0.1% Tween20 in a Biotek ELx405 plate washer. The plates were then read in a PerkinElmer TopCount plate reader to measure the quantity of ^3H-labeled peptide bound to the Flashplate surface, measured as disintegrations per minute (dpm) or alternatively, referred to as counts per minute (cpm).
Where dpm=disintegrations per minute, cmpd=signal in assay well, and min and max are the respective minimum and maximum signal controls.
Where top and bottom are the normally allowed to float, but may be fixed at 100 or 0 respectively in a 3-parameter fit. The Hill Coefficient normally allowed to float but may also be fixed at 1 in a 3-parameter fit. Y is the % inhibition and X is the compound concentration.

Usually IC50 stands for the concentration needed to halve the response being measured. A higher IC50 goes with lower potency. Molecule `CNCCN(C)Cc1cn(C2CC2)nc1-c1ccc(F)cc1` [Compound 13] showed an IC50 of 2240 nM.
`CNCCN(C)Cc1cnn(C2CC2)c1-c1ccc(F)cc1` [Compound 14] registered an IC50 of 970 nM.
For the molecule `CNCCN(C)Cc1cn(C(C)C)nc1-c1ccc(F)cc1` [Compound 15], the IC50 was 3400 nM. Compared with the last molecule, the IC50 is about 3.5-fold higher.
In turn, `CNCCN(C)Cc1cnn(C(C)C)c1-c1ccc(F)cc1` [Compound 16] came in with an IC50 of 6740 nM.
Under `CNCCN(C)Cc1cn[nH]c1-c1ccc(C#N)cc1` [Compound 17] stands 1560 nM.
The same measure for `CNCCN(C)Cc1cn[nH]c1-c1cc(F)cc(F)c1` [Compound 18]: 656 nM; for `CN(CCN)Cc1n[nH]cc1-c1ccc(C2CCOCC2)cc1` [Compound 145]: 4920 nM; for `COc1ccc(-c2n[nH]cc2CN(C)CCN)c(Cl)c1` [Compound 146]: 5770 nM.
The same measure for `CN(CCN)Cc1c[nH]nc1-c1cccc(N(C)C)c1` [Compound 149]: 1300 nM; for `CCOC(=O)c1cccc(-c2n[nH]cc2CN(C)CCN)c1` [Compound 150]: 2420 nM.
Regarding `COc1cc(F)ccc1-c1n[nH]cc1CN(C)CCN` [Compound 151], inhibition was half-maximal at 8320 nM (IC50).
On to `Cc1cc(F)ccc1-c1n[nH]cc1CN(C)CCN` [Compound 152], for which the IC50 worked out at 6870 nM.
The same measure for `COc1ccc(-c2n[nH]cc2CN(C)CCN)cc1` [Compound 153]: 2060 nM; for `CN(CCN)Cc1c[nH]nc1-c1cc(Cl)ccc1F` [Compound 156]: 6740 nM; for `Cc1ccccc1-c1n[nH]cc1CN(C)CCN` [Compound 161]: 6130 nM.
Under `Cc1ccc(-c2n[nH]cc2CN(C)CCN)cc1` [Compound 162] stands 612 nM; under `CCn1cc(CN(C)CCNC)c(-c2ccc(OC(C)C)cc2)n1` [Compound 213], 200 nM.
Take `CNCCN(C)Cc1cn(C2CCCC2)nc1-c1ccc(OC(C)C)cc1` [Compound 214]: the IC50 turned out to be 168 nM.
In turn, `CNCCN(C)Cc1cn(C2CCOC2)nc1-c1ccc(OC(C)C)cc1` (centres unmarked) [Compound 215] displayed an IC50 of 299 nM. Against the preceding molecule, the IC50 is about 1.8-fold higher.
`CNCCN(C)Cc1cnn(C2CCOC2)c1-c1ccc(OC(C)C)cc1` (centres unmarked) [Compound 216] gave an IC50 of 285 nM.
The same measure for `CNCCN(C)Cc1cn(Cc2ccccc2)nc1-c1ccc(OC(C)C)cc1` [Compound 217]: 620 nM; for `C=CCn1cc(CN(C)CCNC)c(-c2ccc(OC(C)C)cc2)n1` [Compound 218]: 414 nM.
As for `C=CCn1ncc(CN(C)CCNC)c1-c1ccc(OC(C)C)cc1` [Compound 219], inhibition was half-maximal at 142 nM (IC50).
